Test results from publication PMC6696198, “Thyroid Peroxidase Activity is Inhibited by Phenolic Compounds—Impact of Interaction” (Molecules, 2019).
Values joined by “and” are separate entries in the source; they are usually repeats but may differ in a detail not shown here. Equal values may be shown once. “Also recorded” adds a separate entry of the source. Read-outs that look alike come from different tables or passages of the source.

How the values were obtained:
TPO [1] = system: TPO; set-up: method as in PMID 25822105; conditions: according to literature data ref 22; read-out: IC50 of TPO inhibition (positive controls); cited from earlier work
[2] = ABTS radical scavenging (in vitro antioxidant capacity) assay; conditions: n = 9
Protocol: The ABTS radical scavenging activity was determined according to Re et al. with some modifications. 250 µL of ABTS solution was mixed with 10 µL of each pure polyphenols solutions (concentration 50 µg/mL) and measured at the wavelength 724 nm using a UV/Vis spectrophotometer (BioTek, Model Epoch2TC, Winooski, Vermont, VT, USA) after 15 min of incubation in room temperature. The inhibition percentage of ABTS discoloration was calculated using the following equation: AA=Ac−Ap/Ac×100% Where Ac—the absorbance of control, Ap—the absorbance of pure polyphenols solutions.

thyroid peroxidase (TPO) [3] = target: T1, thyroid peroxidase (TPO) (Sus scrofa, UniProt P09933); assay: TPO inhibitory assay (guaiacol oxidation); format: biochemical, porcine; conditions: for Mode of Inhibition: Lineweaver-Burk plot, with respect to guaiacol; for Vmax: TPO in presence of inhibitor; for Vmax / Ki / IC50: n = 9; for IC50: porcine thyroid TPO, guaiacol assay, read-out: IC50 of TPO inhibition
T1 construct: The frozen thyroid gland was cut into slices and homogenized in a buffer containing 0.25 M sucrose; from tissue; host or cells: porcine thyroid gland (homogenate, centrifuged, salted-out to 60%)
T1 sequence (P09933 15-926): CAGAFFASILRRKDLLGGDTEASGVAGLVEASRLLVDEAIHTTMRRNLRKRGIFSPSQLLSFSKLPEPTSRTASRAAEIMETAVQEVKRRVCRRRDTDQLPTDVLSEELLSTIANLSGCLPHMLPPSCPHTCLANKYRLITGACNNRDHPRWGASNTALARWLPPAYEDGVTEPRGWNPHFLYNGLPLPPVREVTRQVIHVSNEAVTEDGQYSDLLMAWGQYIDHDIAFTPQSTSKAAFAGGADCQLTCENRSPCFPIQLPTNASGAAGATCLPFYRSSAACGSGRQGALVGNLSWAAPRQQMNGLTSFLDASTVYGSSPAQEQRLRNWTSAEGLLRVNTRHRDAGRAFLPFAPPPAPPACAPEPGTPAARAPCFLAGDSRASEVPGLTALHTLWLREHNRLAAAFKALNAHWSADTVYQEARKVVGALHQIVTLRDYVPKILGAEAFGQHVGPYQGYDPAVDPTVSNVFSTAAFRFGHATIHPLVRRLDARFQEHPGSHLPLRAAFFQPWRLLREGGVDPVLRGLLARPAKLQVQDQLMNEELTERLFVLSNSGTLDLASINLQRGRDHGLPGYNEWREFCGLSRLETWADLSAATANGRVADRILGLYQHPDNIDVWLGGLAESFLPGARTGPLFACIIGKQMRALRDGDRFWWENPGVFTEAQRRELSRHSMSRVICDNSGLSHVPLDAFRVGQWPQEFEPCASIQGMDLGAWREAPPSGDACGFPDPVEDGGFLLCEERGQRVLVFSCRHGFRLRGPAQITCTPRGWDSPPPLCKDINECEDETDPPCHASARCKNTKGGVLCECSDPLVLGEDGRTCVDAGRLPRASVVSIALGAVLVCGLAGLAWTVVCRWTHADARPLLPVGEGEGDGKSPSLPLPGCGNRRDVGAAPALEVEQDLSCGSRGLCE
Protocol: Porcine thyroid glands were obtained at a local slaughterhouse (Lublin, Poland) and stored in −20 °C until used.
The assay was prepared according to Jomaa with some modifications. The frozen thyroid gland was cut into slices and homogenized in a buffer containing 0.25 M sucrose, 2 mM Tris—HCl, 100 mM KCl, 40 mM NaCl, 10 mM MgCl2 (pH 7.4) with a Philips homogenizer. The thyroid gland was than centrifuged two times at 4000 RPM per 15 min in temperature +4 °C. The enzyme protein was then salted-out to 60%. The supernatant was used for further analysis and was stored in a −20 °C freezer.
The activity of the enzyme was assayed using a guaiacol assay. […] The reaction components were incubated in 37 °C before the assignment. […] The assay was conducted as follows: To a cuvette, 180 µL of buffer, 100 µL of guaiacol and 40 µL of TPO were mixed to the final volume of […]. The cuvette was then placed into the spectrophotometer and the reaction was started by the addition of 100 µL H2O2. Absorbance readings were recorded every minute for a total of 3 min. Verification of the TPO activity was accomplished by linearly correlating the TPO concentration with absorbance readings.
(§1) The assay was used according to Jomaa with some modification. The measurement was made using a plate spectrophotometer (BioTek, Model Epoch2TC, Winooski, Vermont, VT, USA) in 96–well plates at a wavelength of 470 nm. The assay was conducted as follows: 50 µl of buffer, 40 µl of pure substance solution, 50 µL of guaiacol, 20 µL of TPO enzyme and 50 µL H2O2. The total volume of the mixture was 210 µL. In the sample probe, extracts were replaced by the buffer. Absorbance readings were recorded every minute for a total of 3 min in 37^o. As a unit of TPO activity is defined as the change of absorbation per minute.
TPO inhibitory activity was calculated as follows: %inhibition=(1−ΔA/mintest/ΔAminblank)×100 Where: ΔA/min test is the linear absorbance change per minute of the test material and ΔA min blank is the linear change in absorbance per minute of the blank.
The IC50 value was determined by the interpolation of dose response curves. […] The mode of inhibition of the enzyme was performed using the Lineweaver–Burk plot.

thyroid peroxidase (TPO) [4] = target: T1, thyroid peroxidase (TPO); assay: Effect of pure substance combinations on TPO activity (isobolographic analysis); format: biochemical, porcine; set-up: key to CI (Combination Index): CI <1 = synergy, =1 = addition, >1 = antagonism; conditions: TPO inhibition; for CI (Combination Index): n = 9
Protocol: as §1
Results (type and strength of interactions) can be shown on the isobolograms and described by the combination Index (CI). When CI is lower than one, indicates synergy; when CI is equal to one, indicates addition; when CI is higher than one, indicates antagonism. Isobolograms were performed according to Chou. […] Pure substances were mixed in various volume ratios: 1:4, 4:1, 3:2, 2:3, 1:1. All of the mixtures were made in combinations of two substances. The inhibitory assay was made using the same proportions as with single solutions.

TPO [5] = system: TPO; set-up: method as in PMID 8924586; conditions: read-out: IC50 in relation to TPO; cited from earlier work
[6] = after meal containing 150 g fried onions (equivalent to 64 mg quercetin); cited from earlier work
[7] = set-up: method as in doi:10.1039/C6RA28237G; conditions: rats, cited from earlier work
[8] = set-up: method as in PMID 25978046; conditions: Melissa officinalis extract containing 500 mg rosmarinic acid, fasted state; cited from earlier work
[9] = six weeks supplementation with rutin, volunteers; cited from earlier work
[10] = mixture with Chlorogenic Acid, listed as Rosmarinic acid
[11] = mixture with Quercetin, listed as Rosmarinic acid
[12] = mixture with Chlorogenic Acid, listed as Rutin

## Cn1cc[nH]c1=S [Methimazole]
TPO [1]
  IC50: 10.7 µM

## Cc1c(C)c2c(c(C)c1O)CCC(C)(C(=O)O)O2 (centres unmarked) [Trolox, 6-hydroxy-2,5,7,8-tetramethylchroman-2-carboxylic acid, reference compound]
[2]
  IC50: 407 ± 14 µM

## O=C(/C=C/c1ccc(O)c(O)c1)O[C@@H]1C[C@](O)(C(=O)O)C[C@@H](O)[C@H]1O [chlorogenic acid]
Thyroid peroxidase (TPO) [3]
  Mode of Inhibition: noncompetitive
  Vmax: 149.25 ± 5.97 a * ΔAU/min
  Ki: 170 ± 5 µM
  IC50: 1440 ± 41 µM
Thyroid peroxidase (TPO) [4]; mixture with Quercetin
  Type of interaction (scale according to Chou): antagonism; also recorded: antagonistic interaction
Thyroid peroxidase (TPO) [4]; mixture with Quercetin, listed as Chlorogenic acid
  Type of interaction (scale according to Chou): Antagonism
Thyroid peroxidase (TPO) [4]; mixture with Rosmarinic Acid
  Type of interaction (scale according to Chou): antagonistic interaction; also recorded: Moderate antagonism
Thyroid peroxidase (TPO) [4]; mixture with Rutin
  Type of interaction (scale according to Chou): Slight synergism

## O=c1c(O)c(-c2ccc(O)c(O)c2)oc2cc(O)cc(O)c12 [quercetin]
[2]
  IC50: 450 µM and 447 µM
Thyroid peroxidase (TPO) [3]
  Mode of Inhibition: uncompetitive
  Vmax: 149.25 ± 4.35 a ΔAU/min
TPO [5]
  IC50: 2.4 µM
[6]
  human plasma concentration of quercetin: about 0.65 umol/l
Thyroid peroxidase (TPO) [4]; mixture with Chlorogenic Acid
  Type of interaction (scale according to Chou): Antagonism
Thyroid peroxidase (TPO) [4]; mixture with Rosmarinic Acid
  Type of interaction (scale according to Chou): Moderate antagonism

## O=C(/C=C/c1ccc(O)c(O)c1)O[C@H](Cc1ccc(O)c(O)c1)C(=O)O [rosmarinic acid]
[2]
  IC50: 151 ± 6 µM
[7]; oral 25 mg/kg
  absolute bioavailability: 1.28%
[7]; oral 50 mg/kg
  absolute bioavailability: 0.91%
[7]; oral […]
  absolute bioavailability: 1.69%
Thyroid peroxidase (TPO) [3]
  Mode of Inhibition: competitive
  Vmax: 175.44 ± 7.01 b ΔAU/min
  Ki: 1 µM
  IC50: 4 ± 0.14 µM
Thyroid peroxidase (TPO) [4]; mixture with Chlorogenic Acid
  Type of interaction (scale according to Chou): moderate antagonism
  CI (Combination Index): 1.25
Thyroid peroxidase (TPO) [4]; [10]
  CI (Combination Index): 1.25 ± 0.05
  Type of interaction (scale according to Chou): Moderate antagonism
Thyroid peroxidase (TPO) [4]; mixture with Quercetin
  Type of interaction (scale according to Chou): moderate antagonism; also recorded: antagonistic interaction
  CI (Combination Index): 1.45
Thyroid peroxidase (TPO) [4]; [11]
  CI (Combination Index): 1.45 ± 0.03
  Type of interaction (scale according to Chou): Moderate antagonism
Thyroid peroxidase (TPO) [4]; mixture with Rutin
  Type of interaction (scale according to Chou): nearly additive
  CI (Combination Index): 1.06 ± 0.05
Thyroid peroxidase (TPO) [4]; mixture with Rutin, listed as Rosmarinic acid
  Type of interaction (scale according to Chou): Nearly additive
[8]
  maximum serum concentration: 162.20 nM
  time of peak serum concentration of total rosmarinic acid: 1 h

## CCCc1cc(=O)[nH]c(=S)[nH]1 [Propylthiouracil]
TPO [1]
  IC50: 4 µM

## C[C@@H]1O[C@@H](OC[C@H]2O[C@@H](Oc3c(-c4ccc(O)c(O)c4)oc4cc(O)cc(O)c4c3=O)[C@H](O)[C@@H](O)[C@@H]2O)[C@H](O)[C@H](O)[C@H]1O [rutin]
[2]
  IC50: 292 ± 10 µM
Thyroid peroxidase (TPO) [3]
  Mode of Inhibition: competitive
  Vmax: 149.25 ± 5.01 a ΔAU/min
  Ki: 130 ± 3 µM
TPO [5]
  IC50: 40.6 µM
[9]
  increase in plasma isorhamnetin: 10 fold
  increase in plasma kaempferol: 3 fold
  increase in plasma quercetin: 2.5 fold
Thyroid peroxidase (TPO) [4]; mixture with Chlorogenic Acid
  Type of interaction (scale according to Chou): slight synergism; also recorded: synergistically
  CI (Combination Index): 0.88
Thyroid peroxidase (TPO) [4]; [12]
  CI (Combination Index): 0.88 ± 0.02
  Type of interaction (scale according to Chou): Slight synergism
Thyroid peroxidase (TPO) [4]; mixture with Quercetin
  Type of interaction (scale according to Chou): additive interaction; also recorded: nearly additive
  CI (Combination Index): 0.096 and 0.096 ± 0.05
Thyroid peroxidase (TPO) [4]; mixture with Quercetin, listed as Rutin
  Type of interaction (scale according to Chou): additively; also recorded: Nearly additive
Thyroid peroxidase (TPO) [4]; mixture with Rosmarinic Acid
  Type of interaction (scale according to Chou): additively; also recorded: additive interaction
Thyroid peroxidase (TPO) [4]; mixture with Rosmarinic Acid, listed as Rutin
  Type of interaction (scale according to Chou): Nearly additive
